The text below walks through data of patent US5801197A, “Rotamase enzyme activity inhibitors” (GPI Nil Holdings, Inc., priority 1996, dated 1998).

In experiment [1] the test system is chick dorsal root ganglia. The experiment in a line: Neurite outgrowth in chick dorsal root ganglion cultures. The conditions noted are these: for EC50: Gallus gallus, chick DRG explants, 48 h after drug treatment, read-out: ED50, Neurite Outgrowth in DRG cultures. Type of experiment: cell-based. As for the experimental part: In the present work explants of chick dorsal root ganglia have been used, which are easier to employ in studies of nerve outgrowth.
Chick Dorsal Root Ganglion Cultures and Neurite Outgrowth
Dorsal root ganglia were dissected from chick embryos of ten day gestation. Whole ganglion explants were cultured on thin layer Matrigel-coated 12 well plates with Liebovitz L15 plus high glucose media supplemented with 2 mM glutamine and 10% fetal calf serum, and also containing 10 μM cytosine β-D arabinofuranoside (Ara C) at 37° C. in an environment containing 5% CO2. Twenty-four hours later, the DRGs were treated with various concentrations of nerve growth factor, immunophilin ligands or combinations of NFG plus drugs. Forty-eight hours after drug treatment, the ganglia were visualized under phase contrast or Hoffman Modulation contrast with a Zeiss Axiovert inverted microscope. Photomicrographs of the explants were made, and neurite outgrowth was quantitated. Neurites longer than the DRG diameter were counted as positive, with total number of neurites quantitated per each experimental condition. Three to four DRGs are cultured per well, and each treatment was performed in duplicate. Data from 6-10 different concentrations were used to generate dose-response curves, from which ED50 values were calculated.

Experiment [2] deals with dorsal root ganglion cells (DRGs). The conditions noted are these: picomolar concentrations; sensory neurons; cited from earlier work.
The subject of the next experiment is facial nerve injury. The conditions noted are these: whole animal experiments; cited from earlier work.
The test system of experiment [3] is growth-associated protein-43 (GAP43). The conditions noted are these: cited from earlier work.
The test system of the next experiment is rat dorsal root ganglia. The conditions noted are these: rat DRG explants, cited from earlier work.
In another experiment the test system is PC12 cells. The conditions noted are these: picomolar concentrations; cited from earlier work.
The test system of the next experiment is sciatic nerve lesions. The conditions noted are these: whole animal experiments; cited from earlier work.

Turning to `COC(=O)C(=O)N1CCCC[C@H]1C(=O)OCCCCC1CCCCC1` [Example 8], the EC50 in experiment [1] is over 10000 nM.

`O=C(C(=O)N1CCCC[C@H]1C(=O)OCCc1ccccc1)c1ccccc1` [Example 5]: in experiment [1], the EC50 was 25 to 100 nM.

For `O=C(C(=O)N1CCCC[C@H]1C(=O)OC(CCCc1ccccc1)CCCc1ccccn1)c1ccccc1` (stereo partly shown) [Compound 18], the EC50 in experiment [1] was determined as 0.063 nM.

With `CC(C)Oc1cccc(C(=O)C(=O)N2CCCC[C@H]2C(=O)OC(CCCc2ccccc2)CCCc2cccnc2)c1` (stereo partly shown) [Compound 25], in experiment [1], the EC50 was 0.3 nM.

For `COc1ccc(CCC(CCCc2ccccc2)OC(=O)[C@@H]2CCCCN2C(=O)C(=O)c2ccccc2)cc1` (stereo partly shown) [Compound 19], in experiment [1], the EC50 lay in the range of 10 to 20 nM.

In the case of `COc1cc(C(=O)C(=O)N2CCCC[C@H]2C(=O)OCc2cccc(Oc3ccccc3)c2)cc(OC)c1OC` [Example 13], the EC50 in experiment [1] turned out to be 0.18 nM.

Take `COC(=O)C(=O)N1CCCC[C@H]1C(=O)OCc1ccccc1` [Example 7]: the EC50 in experiment [1] is over 10000 nM.

Consider `O=C(C(=O)N1CCCC[C@H]1C(=O)OCCCCC1CCCCC1)c1ccccc1` [Example 6], for which the EC50 in experiment [1] lay within 10 to 20 nM.

Regarding `COC(=O)C(=O)N1CCCC[C@H]1C(=O)OCCCC1CCCC1` [Example 10], in experiment [1], the EC50 was over 10000 nM.

In the case of `COc1cc(C(=O)C(=O)N2CCCC[C@H]2C(=O)OCCCCc2ccccc2)cc(OC)c1OC` [Example 14], in experiment [1], the EC50 lay within 1 to 5 nM.

On to `COc1cc(C(=O)C(=O)N2CCCC[C@H]2C(=O)OC(CCCc2ccccc2)CCc2cccnc2)cc(OC)c1OC` (stereo partly shown) [Compound 22], for which the “neurite outgrowth in cultured sensory neurons (photomicrograph)” value in experiment [1] (1 nM) was “responding to trophic effects”. Besides, in experiment [1], the EC50 stood at 0.95 nM.

For the compound `COc1cc(C(=O)C(=O)N2CCCC[C@H]2C(=O)OC(CCCc2ccccc2)CCCc2ccccn2)cc(OC)c1OC` (stereo partly shown) [Compound 23], in experiment [1], the EC50 was found to be 25 nM.

For the compound `COc1ccc(CCCC(CCCc2ccccc2)OC(=O)[C@@H]2CCCCN2C(=O)C(=O)c2cc(OC)c(OC)c(OC)c2)cc1` (stereo partly shown) [Compound 24], in experiment [1], the EC50 is 0.5 nM.

Consider `O=C(C(=O)N1CCCC[C@H]1C(=O)OC(CCCc1ccccc1)CCCc1ccccc1)c1ccccc1` [Compound 20], for which the EC50 in experiment [1] came to 0.0044 nM.

In the case of `O=C(C(=O)N1CCCC[C@H]1C(=O)OCCCc1ccccc1)c1ccccc1` [Example 2], in experiment [1], the EC50 lay in the range of 10 to 20 nM.

Consider `COc1cc(C(=O)C(=O)N2CCCC[C@H]2C(=O)OCCCc2c[nH]c3ccccc23)cc(OC)c1OC` [Example 15], for which the “neurite outgrowth in cultured sensory neurons (photomicrograph)” value in experiment [1] (300 pM) is “stimulation of neurite outgrowth”. The EC50 in experiment [1] was determined as 0.055 nM.

As to `O=C(C(=O)N1CCCC[C@H]1C(=O)OCCCCc1ccccc1)c1ccccc1` [Example 4], the EC50 in experiment [1] fell in the range of 25 to 100 nM.

As to `COc1cc(C(=O)C(=O)N2CCCC[C@H]2C(=O)OCCCCC2CCCCC2)cc(OC)c1OC` [Example 12], the EC50 in experiment [1] was determined as 0.031 nM.

Consider `O=C(C(=O)N1CCCC[C@H]1C(=O)OC(CCCc1ccccc1)CCCc1cccnc1)c1ccccc1` (stereo partly shown) [Compound 17], for which, in experiment [1], the EC50 lay in the range of 1 to 5 nM.

On to `COc1ccc(CCCCOC(=O)[C@@H]2CCCCN2C(=O)C(=O)c2ccccc2)cc1` [Example 3], for which the EC50 in experiment [1] amounted to 0.5 nM.

As to `O=C(C(=O)N1CCCC[C@H]1C(=O)OCc1ccccc1)c1ccco1` [Example 11], the EC50 in experiment [1] was 1000 nM.

For the compound `COc1cc(C(=O)C(=O)N2CCCC[C@H]2C(=O)OC(CCCc2ccccc2)CCCc2ccccc2)cc(OC)c1OC` [Compound 21], the “dose-dependence of neurotrophic effects in neuronal cultures” value in experiment [1] (FIG. 3, cultured sensory neurons) is reported as “dose-dependent neurotrophic effects”. The EC50 in experiment [1] turned out to be 0.61 nM.

`COc1ccc(CCCCOC(=O)[C@@H]2CCCCN2C(=O)C(=O)c2cc(OC)c(OC)c(OC)c2)cc1` [Example 16]: in experiment [1], the EC50 amounted to 0.03 nM.

Consider `O=C(C(=O)N1CCCC[C@H]1C(=O)OCc1ccccc1)c1ccccc1` [Example 1], for which the EC50 in experiment [1] is 25 to 100 nM.

For the compound `C=CC[C@@H]1/C=C(\C)C[C@H](C)C[C@H](OC)[C@H]2O[C@@](O)(C(=O)C(=O)N3CCCC[C@H]3C(=O)O[C@H](/C(C)=C/[C@@H]3CC[C@@H](O)[C@H](OC)C3)[C@H](C)[C@@H](O)CC1=O)[C@H](C)C[C@@H]2OC` [FK506], the “stimulation of neurite outgrowth” value in experiment [2] was “stimulate neurite out growth in PC12 cells and sensory neurons”; in the experiment with PC12 cells, “stimulate neurite out growth in PC12 cells”. In addition, the “nerve regeneration following facial nerve injury” value in the experiment with facial nerve injury is “stimulate nerve regeneration following facial nerve injury”. In experiment [3], the “phosphorylation of GAP43” value was “augments the phosphorylation”. Moreover, in the experiment on rat dorsal root ganglia (no NGF), the “neurotrophic effects in the absence of NGF” value is “neurotrophic effects were observed”. Further, in the experiment with rat dorsal root ganglia, the “lowest concentration with significant augmentation in nerve outgrowth” value is 1 picomolar. Also, the “functional recovery in animals with sciatic nerve lesions” value in the experiment on sciatic nerve lesions is given as “functional recovery in animals with sciatic nerve lesions”.

Take `COC(=O)C(=O)N1CCCC[C@H]1C(=O)OCCCC1CCCCC1` [Example 9]: the EC50 in experiment [1] is over 10000 nM.

Take `CO[C@H]1C[C@@H]2CC[C@@H](C)[C@@](O)(O2)C(=O)C(=O)N2CCCC[C@H]2C(=O)O[C@H]([C@H](C)C[C@@H]2CC[C@@H](O)[C@H](OC)C2)CC(=O)[C@H](C)/C=C(\C)[C@@H](O)[C@@H](OC)C(=O)[C@H](C)C[C@H](C)/C=C/C=C/C=C/1C` [rapamycin]: the “stimulation of neurite outgrowth” value in experiment [2] is “stimulate neurite out growth in PC12 cells and sensory neurons”; in the experiment with PC12 cells, “stimulate neurite out growth in PC12 cells”.
